# Reference: patent US10413535B2, “Pharmaceutical compositions comprising an integrin ALPHA4 antagonist for use in treating ocular inflammatory conditions” (AXEROVISION, INC., priority 2015, dated 2019)
# Like-named read-outs stand apart in the source and are kept apart here.
# Experiments:
# [1] = Toxicokinetics in 13-week topical ocular rabbit study; conditions: New Zealand White, in vivo, topical or ocular
# Experimental: (§1) GW559090A was given to New Zealand White Rabbits by topical ocular administration for 13 weeks. Animals were dosed six or twelve times per day, with one hour between doses. Treatment groups were: (1) vehicle (12 times a day), (2) 30 mg/mL/occasion given six times a day, (3) 50 mg/mL/occasion given six times a day, or (4) 50 mg/mL/occasion, given 12 times a day.
# (§2) GW559090A was formulated as a stock solution in 25 mM phosphate buffer with 0.5% sodium chloride to provide a 50 mg/mL stock solution, which was used for administration to Groups 3 or 4, or further diluted with 25 mM phosphate buffer with 0.75% sodium chloride to provide a 30 mg/mL solution for administration to Group 2. Control animals were treated with the vehicle for 50 mg/mL solution (25 mM phosphate buffer with 0.5% sodium chloride).
# During the 13 week treatment period rabbits received daily topical ocular doses of GW559090A or vehicle at a constant dose volume of 0.06 mL (given 6 or 12 times a day, with one hour between doses). The test article formulation or vehicle was carefully dropped into the partially everted lower eyelid of the right eye from a suitable distance, to prevent contact of the positive displacement pipette with the eye. The lower and upper lids were then gently held together for approximately five seconds, to prevent loss of dose and aid even distribution across the external ocular surface. The un-dosed eye was not manipulated at any time and served as a within animal untreated control site.
# Beagle Dogs = experiment: 13-week topical ocular toxicity study in Beagle dogs; format: in vivo, dog
# Experimental: as §1, with “Beagle Dogs” for “New Zealand White Rabbits”
# as §2, with “2.” for “2. Control animals were treated with the vehicle for 50 mg/mL solution (25 mM phosphate buffer with 0.5% sodium chloride).”
# During the 13 week treatment period dogs received daily topical ocular doses of GW559090 or vehicle (12 times a day) at a constant dose volume of 0.06 mL (given 6 or 12 times a day, with one hour between doses). The test article formulation or vehicle was carefully dropped into the everted lower eyelid of the left eye from a suitable distance, to prevent contact of the positive displacement pipette with the eye. The lower and upper lids were then gently held together for approximately five seconds, to prevent loss of dose and aid even distribution across the external ocular surface. The un-dosed eye was not manipulated at any time and served as a within animal untreated control site.
# [2] = female, 30 mg/mL/occasion, female rabbits, 30 mg/mL, 6 daily doses, Day 1, after the first daily dose
# [3] = female, 30 mg/mL/occasion, female rabbits, 30 mg/mL, 6 daily doses, Week 4, after the first daily dose
# [4] = female, 30 mg/mL/occasion, female rabbits, 30 mg/mL, 6 daily doses, Week 13, after the first daily dose
# [5] = female, 50 mg/mL/occasion, female rabbits, 50 mg/mL, 6 daily doses, Day 1, after the first daily dose
# [6] = female, 50 mg/mL/occasion, female rabbits, 50 mg/mL, 6 daily doses, Week 4, after the first daily dose
# [7] = female, 50 mg/mL/occasion, female rabbits, 50 mg/mL, 6 daily doses, Week 13, after the first daily dose
# [8] = female, 50 mg/mL/occasion, female rabbits, 50 mg/mL, 12 daily doses, Day 1, after the first daily dose
# [9] = female, 50 mg/mL/occasion, female rabbits, 50 mg/mL, 12 daily doses, Week 4, after the first daily dose
# [10] = female, 50 mg/mL/occasion, female rabbits, 50 mg/mL, 12 daily doses, Week 14, after the first daily dose
# [11] = male, 30 mg/mL/occasion, male rabbits, 30 mg/mL, 6 daily doses, Day 1, after the first daily dose
# [12] = male, 30 mg/mL/occasion, male rabbits, 30 mg/mL, 6 daily doses, Week 4, after the first daily dose
# [13] = male, 30 mg/mL/occasion, male rabbits, 30 mg/mL, 6 daily doses, Week 13, after the first daily dose
# [14] = male, 50 mg/mL/occasion, male rabbits, 50 mg/mL, 6 daily doses, Day 1, after the first daily dose
# [15] = male, 50 mg/mL/occasion, male rabbits, 50 mg/mL, 6 daily doses, Week 4, after the first daily dose
# [16] = male, 50 mg/mL/occasion, male rabbits, 50 mg/mL, 6 daily doses, Week 13, after the first daily dose
# [17] = male, 50 mg/mL/occasion, male rabbits, 50 mg/mL, 12 daily doses, Day 1, after the first daily dose
# [18] = male, 50 mg/mL/occasion, male rabbits, 50 mg/mL, 12 daily doses, Week 4, after the first daily dose
# [19] = male, 50 mg/mL/occasion, male rabbits, 50 mg/mL, 12 daily doses, Week 14, after the first daily dose
# [20] = topical ocular 13 weeks, 30 or 50 mg/mL/occasion six times daily or 50 mg/mL/occasion 12 times daily
compound,measurement,setting,value
"Cc1ccccc1OCC(=O)N[C@@H](CC(C)C)C(=O)N[C@@H](Cc1ccc(OC(=O)N2CCC(C(N)=O)CC2)cc1)C(=O)O [GW559090, (2S)-3-[4-({[4-(Aminocarbonyl)-1-piperidinyl]carbonyl}oxy)phenyl]-2-[((2S)-4-methyl-2-{[2-(2-methylphenoxy)acetyl]amino}pentanoyl)amino]propanoic acid]",Cmax,[1]; [2],16 ng/mL
same,Tmax,[1]; [2],4.98 min
same,AUC(0-t),"[1]; female, 30 mg/mL/occasion, female rabbits, 30 mg/mL, 6 daily doses, Day 1, read-out: AUC0-1",4.19 ng·h/mL
same,AUC(0-t),"[1]; female, 30 mg/mL/occasion, female rabbits, 30 mg/mL, 6 daily doses, Day 1, read-out: AUC0-24",25.1 ng·h/mL
same,Cmax,[1]; [3],32.4 ng/mL
same,Tmax,[1]; [3],4.98 min
same,AUC(0-t),"[1]; female, 30 mg/mL/occasion, female rabbits, 30 mg/mL, 6 daily doses, Week 4, read-out: AUC0-1",10.6 ng·h/mL
same,AUC(0-t),"[1]; female, 30 mg/mL/occasion, female rabbits, 30 mg/mL, 6 daily doses, Week 4, read-out: AUC0-24",63.6 ng·h/mL
same,Cmax,[1]; [4],23.5 ng/mL
same,Tmax,[1]; [4],15 min
same,AUC(0-t),"[1]; female, 30 mg/mL/occasion, female rabbits, 30 mg/mL, 6 daily doses, Week 13, read-out: AUC0-1",9.83 ng·h/mL
same,AUC(0-t),"[1]; female, 30 mg/mL/occasion, female rabbits, 30 mg/mL, 6 daily doses, Week 13, read-out: AUC0-24",59 ng·h/mL
same,Cmax,[1]; [5],67.8 ng/mL
same,Tmax,[1]; [5],4.98 min
same,AUC(0-t),"[1]; female, 50 mg/mL/occasion, female rabbits, 50 mg/mL, 6 daily doses, Day 1, read-out: AUC0-1",11 ng·h/mL
same,AUC(0-t),"[1]; female, 50 mg/mL/occasion, female rabbits, 50 mg/mL, 6 daily doses, Day 1, read-out: AUC0-24",66 ng·h/mL
same,Cmax,[1]; [6],44.4 ng/mL
same,Tmax,[1]; [6],4.98 min
same,AUC(0-t),"[1]; female, 50 mg/mL/occasion, female rabbits, 50 mg/mL, 6 daily doses, Week 4, read-out: AUC0-1",12.6 ng·h/mL
same,AUC(0-t),"[1]; female, 50 mg/mL/occasion, female rabbits, 50 mg/mL, 6 daily doses, Week 4, read-out: AUC0-24",75.6 ng·h/mL
same,Cmax,[1]; [7],49.7 ng/mL
same,Tmax,[1]; [7],4.98 min
same,AUC(0-t),"[1]; female, 50 mg/mL/occasion, female rabbits, 50 mg/mL, 6 daily doses, Week 13, read-out: AUC0-1",15.7 ng·h/mL
same,AUC(0-t),"[1]; female, 50 mg/mL/occasion, female rabbits, 50 mg/mL, 6 daily doses, Week 13, read-out: AUC0-24",94.2 ng·h/mL
same,Cmax,[1]; [8],30.6 ng/mL
same,Tmax,[1]; [8],4.98 min
same,AUC(0-t),"[1]; female, 50 mg/mL/occasion, female rabbits, 50 mg/mL, 12 daily doses, Day 1, read-out: AUC0-1",7.3 ng·h/mL
same,AUC(0-t),"[1]; female, 50 mg/mL/occasion, female rabbits, 50 mg/mL, 12 daily doses, Day 1, read-out: AUC0-24",87.6 ng·h/mL
same,Cmax,[1]; [9],56.6 ng/mL
same,Tmax,[1]; [9],4.98 min
same,AUC(0-t),"[1]; female, 50 mg/mL/occasion, female rabbits, 50 mg/mL, 12 daily doses, Week 4, read-out: AUC0-1",13.1 ng·h/mL
same,AUC(0-t),"[1]; female, 50 mg/mL/occasion, female rabbits, 50 mg/mL, 12 daily doses, Week 4, read-out: AUC0-24",157 ng·h/mL
same,Cmax,[1]; [10],68 ng/mL
same,Tmax,[1]; [10],4.98 min
same,AUC(0-t),"[1]; female, 50 mg/mL/occasion, female rabbits, 50 mg/mL, 12 daily doses, Week 14, read-out: AUC0-1",35.5 ng·h/mL
same,AUC(0-t),"[1]; female, 50 mg/mL/occasion, female rabbits, 50 mg/mL, 12 daily doses, Week 14, read-out: AUC0-24",426 ng·h/mL
same,Cmax,[1]; [11],30.8 ng/mL
same,Tmax,[1]; [11],4.98 min
same,AUC(0-t),"[1]; male, 30 mg/mL/occasion, male rabbits, 30 mg/mL, 6 daily doses, Day 1, read-out: AUC0-1",7.86 ng·h/mL
same,AUC(0-t),"[1]; male, 30 mg/mL/occasion, male rabbits, 30 mg/mL, 6 daily doses, Day 1, read-out: AUC0-24",47.2 ng·h/mL
same,Cmax,[1]; [12],51.4 ng/mL
same,Tmax,[1]; [12],4.98 min
same,AUC(0-t),"[1]; male, 30 mg/mL/occasion, male rabbits, 30 mg/mL, 6 daily doses, Week 4, read-out: AUC0-1",9.23 ng·h/mL
same,AUC(0-t),"[1]; male, 30 mg/mL/occasion, male rabbits, 30 mg/mL, 6 daily doses, Week 4, read-out: AUC0-24",55.4 ng·h/mL
same,Cmax,[1]; [13],11.8 ng/mL
same,Tmax,[1]; [13],4.98 min
same,AUC(0-t),"[1]; male, 30 mg/mL/occasion, male rabbits, 30 mg/mL, 6 daily doses, Week 13, read-out: AUC0-1",9.1 ng·h/mL
same,AUC(0-t),"[1]; male, 30 mg/mL/occasion, male rabbits, 30 mg/mL, 6 daily doses, Week 13, read-out: AUC0-24",54.6 ng·h/mL
same,Cmax,[1]; [14],105 ng/mL
same,Tmax,[1]; [14],4.98 min
same,AUC(0-t),"[1]; male, 50 mg/mL/occasion, male rabbits, 50 mg/mL, 6 daily doses, Day 1, read-out: AUC0-1",14.4 ng·h/mL
same,AUC(0-t),"[1]; male, 50 mg/mL/occasion, male rabbits, 50 mg/mL, 6 daily doses, Day 1, read-out: AUC0-24",86.4 ng·h/mL
same,Cmax,[1]; [15],80.4 ng/mL
same,Tmax,[1]; [15],4.98 min
same,AUC(0-t),"[1]; male, 50 mg/mL/occasion, male rabbits, 50 mg/mL, 6 daily doses, Week 4, read-out: AUC0-1",17.9 ng·h/mL
same,AUC(0-t),"[1]; male, 50 mg/mL/occasion, male rabbits, 50 mg/mL, 6 daily doses, Week 4, read-out: AUC0-24",107 ng·h/mL
same,Cmax,[1]; [16],32.2 ng/mL
same,Tmax,[1]; [16],4.98 min
same,AUC(0-t),"[1]; male, 50 mg/mL/occasion, male rabbits, 50 mg/mL, 6 daily doses, Week 13, read-out: AUC0-1",17.6 ng·h/mL
same,AUC(0-t),"[1]; male, 50 mg/mL/occasion, male rabbits, 50 mg/mL, 6 daily doses, Week 13, read-out: AUC0-24",106 ng·h/mL
same,Cmax,[1]; [17],66.3 ng/mL
same,Tmax,[1]; [17],4.98 min
same,AUC(0-t),"[1]; male, 50 mg/mL/occasion, male rabbits, 50 mg/mL, 12 daily doses, Day 1, read-out: AUC0-1",12.1 ng·h/mL
same,AUC(0-t),"[1]; male, 50 mg/mL/occasion, male rabbits, 50 mg/mL, 12 daily doses, Day 1, read-out: AUC0-24",145 ng·h/mL
same,Cmax,[1]; [18],41.4 ng/mL
same,Tmax,[1]; [18],4.98 min
same,AUC(0-t),"[1]; male, 50 mg/mL/occasion, male rabbits, 50 mg/mL, 12 daily doses, Week 4, read-out: AUC0-1",11.6 ng·h/mL
same,AUC(0-t),"[1]; male, 50 mg/mL/occasion, male rabbits, 50 mg/mL, 12 daily doses, Week 4, read-out: AUC0-24",139 ng·h/mL
same,Cmax,[1]; [19],38.1 ng/mL
same,Tmax,[1]; [19],30 min
same,AUC(0-t),"[1]; male, 50 mg/mL/occasion, male rabbits, 50 mg/mL, 12 daily doses, Week 14, read-out: AUC0-1",19.6 ng·h/mL
same,AUC(0-t),"[1]; male, 50 mg/mL/occasion, male rabbits, 50 mg/mL, 12 daily doses, Week 14, read-out: AUC0-24",235 ng·h/mL
same,No-Observed-Adverse-Effect level (NOAEL),"Beagle Dogs; given 12 times a day, 13 weeks",50 mg/mL/occasion
same,Ocular change or systemic toxicity,Beagle Dogs; [20],no ocular change or systemic toxicity
same,Tolerability,Beagle Dogs; [20],well-tolerated
